What was measured:
[1] = Aqueous solubility of the quinolone and its crystal forms; format: physicochemical; details: for solubility of crystal form: depending upon the crystal form
From the text: The compounds disclosed in U.S. Pat. No. 5,563,155, ('155) are incorporated by reference here to fully disclose and enable this invention. The following compounds of the '155 patent are pointed out and particularly incorporated here. […] More particularly disclosed by incorporation by reference are those compounds of '155, in claim 1, where R2 is H and where R or R' is H. The quinolone where R2 is H and where R or R' is H can be combined with Mg2+ ions to produce a soluble complex having reduced injection site irritation. More preferred are the compounds of '155, in claim 1, where R2 is H and where R or R' is H, and where R3 is H and X is C--O--CH3. The esters of these compounds are also disclosed herein, the carboxy esters of 1-8 carbon groups are disclosed here, including all isomeric combinations (CH3, C2 H5, C3 H7, C4 H9, C5 H11, C6 H13, C7 H15, C8 H17 -- both straight and branched chains) and especially preferred are the carboxy esters of 1-4 carbon groups such as in U.S. Pat. No. 5,563,155, claim 1, where R2 is an alkyl of 1-4 carbon atoms or a cation. Even more preferred are the compounds of claim 2, most particularly the compound of claim 8 or 3R,1S-1-cyclopropyl-7-(3-(1-(methylamino)ethyl)-1-pyrrolidinyl)-6-fluoro-1,4-dihydro-8-methoxy-4-oxo-3-quinolinecarboxylic acid. […] Also, particular attention is directed to the descriptions in the specification of the '155 patent that correspond or are relevant to those claims and compounds described here.
The quinolones mentioned above can exist in different forms, the different forms having different solubilities. […] Even though it is the less soluble crystal form, Form III is very suitable as the quinolone that may be combined with Mg2+ in this invention. See, WO96/16055, incorporated by reference.
The compounds that may be made into solutions of this type are those compounds disclosed in Formula 1 and in U.S. Pat. No. 5,563,155, incorporated herein by reference and particularly 3R,1S-1-cyclopropyl-7-(3-(1-(methylamino)ethyl)-1-pyrrolidinyl)-6-fluoro-1,4-dihydro-8-methoxy-4-oxo-3-quinolinecarboxylic acid. […]

[2] = Total 14C-quinolone tissue residue depletion; format: in vivo, Holstein calves; details: for Total 14C-quinolone residues at injection site / Total 14C-quinolone residues in fat / Total 14C-quinolone residues in kidneys / Total 14C-quinolone residues in liver / Total 14C-quinolone residues in lungs / Total 14C-quinolone residues in muscle: 10 mg/kg
Description: (§1) Experiment 7. The determination of preliminary residue depletion profile in calves following subcutaneous administration of 14C-quinolone with and without magnesium.
(§2) Formulations: Radiolabeled quinolone was combined with unlabeled quinolone to yield solutions containing quinolone at 50 mg/mL with a specific activity of 2.25 uCi/mg. Solution 1: 4.92 g of unlabeled quinolone and 11.26 mCi 14C-quinolone were dissolved in 0.16 M HCl, the solution was titrated to pH 4-5 with 1 M NaOH and diluted with deionized water to a final volume of 100 mL. Solution 2: 4.92 g of unlabeled quinolone and 11.26 mCi 14C-quinolone were dissolved in 0.24 M MgCl2 --6H2 O and diluted to 100 mL with deionized water.
(§3) Treatment Groups: Ten (male and female) Holstein calves approximately 50-85 kg were used. Each animal was injected with a single subcutaneous injection (approximately 0.2 mL dose solution/kg body weight). The dose level was approximately 10 mg/kg (22.5 uCi/kg) body weight. Whole blood samples (approximately 50 mL) were collected from each animal at 0.5, 1, 1.5, 2, 2.5, 3, 6, 12, 24, and 48 h after dosing or until euthanasia. Following euthanasia, fat, muscle, lung, kidney, liver and injection site tissue samples (approximately 500 g) were collected. Blood and tissue samples were combusted and drug residue determined by liquid scintillation counting.

[3] = Injection site reaction after subcutaneous injection in animals (general statement); format: in vivo; details: without Mg2+
From the text: Unfortunately these compounds also produce a severe adverse reaction at the injection site when injected subcutaneously in animals.

[4] = Serum depletion profile of 14C-quinolone with and without magnesium; format: in vivo, Holstein calves; details: single subcutaneous, approximately 10 mg/kg
Description: as §1, §2, §3

CN[C@@H](C)[C@@H]1CCN(c2c(F)cc3c(=O)c(C(=O)O)cn(C4CC4)c3c2OC)C1 [QFB, [S-(R*,S*)]-1-Cyclopropyl-6-fluoro-1,4-dihydro-8-methoxy-7-[3-[1-(methylamino)ethyl]-1-pyrrolidinyl]-4-oxo-3-quinolinecarboxylic acid]
estimated intrinsic solubility ([1]; 25° C.): about 2.2 mg/ml
Total 14C-quinolone residues at injection site ([2]; 3 hr): 10,482 μg/g
Total 14C-quinolone residues in fat ([2]; 3 hr): 45.4 µg/g
Total 14C-quinolone residues in kidneys ([2]; 3 hr): 353.2 µg/g
Total 14C-quinolone residues in liver ([2]; 3 hr): 215.5 µg/g
Total 14C-quinolone residues in lungs ([2]; 3 hr): 146.8 µg/g
Total 14C-quinolone residues in muscle ([2]; 3 hr): 50.1 µg/g
Total 14C-quinolone residues at injection site ([2]; 6 hr): 12,382 μg/g
Total 14C-quinolone residues in fat ([2]; 6 hr): 16.8 µg/g
Total 14C-quinolone residues in kidneys ([2]; 6 hr): 234.1 µg/g
Total 14C-quinolone residues in liver ([2]; 6 hr): 147.2 µg/g
Total 14C-quinolone residues in lungs ([2]; 6 hr): 96.6 µg/g
Total 14C-quinolone residues in muscle ([2]; 6 hr): 38.4 µg/g
Total 14C-quinolone residues at injection site ([2]; 12 hr): 1,737 μg/g
Total 14C-quinolone residues in fat ([2]; 12 hr): 7.8 µg/g
Total 14C-quinolone residues in kidneys ([2]; 12 hr): 121.3 µg/g
Total 14C-quinolone residues in liver ([2]; 12 hr): 110.9 µg/g
Total 14C-quinolone residues in lungs ([2]; 12 hr): 53.1 µg/g
Total 14C-quinolone residues in muscle ([2]; 12 hr): 24.3 µg/g
Total 14C-quinolone residues at injection site ([2]; 24 hr): 932.5 µg/g
Total 14C-quinolone residues in fat ([2]; 24 hr): 13.9 µg/g
Total 14C-quinolone residues in kidneys ([2]; 24 hr): 90.3 µg/g
Total 14C-quinolone residues in liver ([2]; 24 hr): 59.5 µg/g
Total 14C-quinolone residues in lungs ([2]; 24 hr): 27.6 µg/g
Total 14C-quinolone residues in muscle ([2]; 24 hr): 9.4 µg/g
Total 14C-quinolone residues at injection site ([2]; 48 hr): 225.7 µg/g
Total 14C-quinolone residues in fat ([2]; 48 hr): 1.7 µg/g
Total 14C-quinolone residues in kidneys ([2]; 48 hr): 15.0 µg/g
Total 14C-quinolone residues in liver ([2]; 48 hr): 13.4 µg/g
Total 14C-quinolone residues in lungs ([2]; 48 hr): 4.8 µg/g
Total 14C-quinolone residues in muscle ([2]; 48 hr): 1.4 µg/g
injection site concentration of QFB ([2]; single subcutaneous, approximately 10 mg/kg): 10,480 ug/g
adverse reaction at injection site [3]: dramatic swelling, discoloration, internal and external lesions and even necrosis
serum concentration at 1 hour ([4]; 1 hour): 30400 ng/mL
serum concentration after 48 hours ([4]; 48 hours): 1000 ng/mL

CN[C@@H](C)[C@@H]1CCN(c2c(F)cc3c(=O)c(C(=O)O)cn(C4CC4)c3c2OC)C1 [Form 1, 3R,1S-1-cyclopropyl-7-(3-(1-(methylamino)ethyl)-1-pyrrolidinyl)-6-fluoro-1,4-dihydro-8-methoxy-4-oxo-3-quinolinecarboxylic acid]
solubility of crystal form [1]: about 10.8 mg/ml

CN[C@@H](C)[C@@H]1CCN(c2c(F)cc3c(=O)c(C(=O)O)cn(C4CC4)c3c2OC)C1 [Form 3, 3R,1S-1-cyclopropyl-7-(3-(1-(methylamino)ethyl)-1-pyrrolidinyl)-6-fluoro-1,4-dihydro-8-methoxy-4-oxo-3-quinolinecarboxylic acid]
solubility of crystal form [1]: about 2.2 mg/ml
